Active and inactive are the calls of the source.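 The calls were made as follows: active = maximal inhibition of USP17 at or above 30% in the confirmation dose-response, a value not among the printed readouts; inactive = the rest.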
What follows are compounds tested against Ubiquitin carboxyl-terminal hydrolase 17-like protein 5 (Homo sapiens) (UniProt A8MUK1) (assay: ubiquitin-specific protease 17 inhibitors, concentration series, biochemical, verification of primary actives (AID 1645864)). Conditions: purified USP17, ubiquitin-rhodamine cleavage fluorescence, 3 h.
Sequence of Ubiquitin carboxyl-terminal hydrolase 17-like protein 5 (Homo sapiens) (A8MUK1 whole entry, looked up): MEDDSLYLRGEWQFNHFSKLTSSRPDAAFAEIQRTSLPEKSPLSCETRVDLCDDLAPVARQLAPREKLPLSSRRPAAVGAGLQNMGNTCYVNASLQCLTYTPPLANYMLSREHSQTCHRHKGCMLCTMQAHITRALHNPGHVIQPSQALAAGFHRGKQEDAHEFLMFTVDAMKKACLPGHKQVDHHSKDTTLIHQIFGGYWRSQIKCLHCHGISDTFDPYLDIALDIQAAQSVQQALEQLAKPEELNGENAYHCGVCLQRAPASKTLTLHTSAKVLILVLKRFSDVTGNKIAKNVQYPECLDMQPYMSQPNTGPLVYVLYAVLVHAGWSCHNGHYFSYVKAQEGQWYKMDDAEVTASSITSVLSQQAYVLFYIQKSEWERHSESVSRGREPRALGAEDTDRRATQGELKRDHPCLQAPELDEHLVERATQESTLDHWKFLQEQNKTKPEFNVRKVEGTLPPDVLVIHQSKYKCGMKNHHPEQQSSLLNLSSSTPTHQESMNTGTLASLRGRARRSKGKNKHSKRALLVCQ

**Q.** Which IC50 does the source give for `CC1=C(C(=O)Nc2ccccc2C)C(c2ccc(OCc3ccccc3F)cc2)n2ncnc2N1` (configuration not stated) here?
**A.** 34.3 µM

**Q.** Which IC50 does the source give for `CCn1c(=O)c2ccccc2n(Cc2nc(-c3ccccc3OC)no2)c1=O` here?
**A.** > 50 µM (inactive)

**Q.** How did the IC50 turn out when `Cc1nn(Cc2ccccc2)c(Cl)c1C(=O)NC1CCCc2ccccc21` (configuration not stated) was run?
**A.** > 50 µM (inactive)

**Q.** Which IC50 does the source give for `Cn1c(=O)c2cc(C(=O)Nc3ccc(F)cc3)cnc2n(C)c1=O` here?
**A.** 22.9 µM

**Q.** With `O=C(CSc1ncnc2c1sc1cccc(F)c12)N1CCCCCC1` as the compound, how does the IC50 read?
**A.** > 50 µM (inactive)

**Q.** How did the IC50 turn out when `Cc1nc(N2CCCC2)ncc1C(=O)Nc1ccc(F)c(F)c1` was run?
**A.** 32.3 µM

**Q.** `CCOc1ccc2cc3c(nc2c1)OC(=O)N(Cc1ccc(C)o1)C3` was tested. Which IC50 did it give?
**A.** 2.44 µM

**Q.** `Cc1nc(N2CCCC2)ncc1-c1cc(=O)[nH]c(N2CCc3ccccc3C2)n1` was tested. Which IC50 did it give?
**A.** 21.6 µM

**Q.** How did the IC50 turn out when `O=C(NCCN1CCCC1)C1CCN(c2cnc(N3CCCCC3)nc2)CC1` was run?
**A.** > 50 µM (inactive)

**Q.** For `O=C(/C=C/c1ccco1)c1cccc([N+](=O)[O-])c1`, which IC50 is on record?
**A.** 22.6 µM

**Q.** With `O=C(Nc1ccc2c(c1)OCCO2)c1cccc2nc3ccccc3nc12` as the compound, how does the IC50 read?
**A.** 2.51 µM

**Q.** For `Cc1ccc(NC(=O)c2ccc3nn(CC(=O)Nc4ccc(F)cc4F)c(=O)n3c2)cc1`, which IC50 is on record?
**A.** 2.79 µM

**Q.** For `CCCCCCCCCC(CCCCCCCCCC(=O)O)O[C@H]1O[C@@H](COC(C)=O)[C@H](O)[C@@H](O)[C@H]1OC(=O)CC(=O)O` (some centres not stated), which IC50 is on record?
**A.** 22.8 µM

**Q.** `CCN(C(=O)c1cc2c(s1)-c1ccccc1OC2)c1ccccc1F` was tested. Which IC50 did it give?
**A.** > 50 µM (inactive)

**Q.** For `O=C(Nc1cccc(C(F)(F)F)c1)c1cc2c(s1)-c1ccccc1OC2`, which IC50 is on record?
**A.** 2.15 µM

**Q.** Which IC50 does the source give for `O=C(/C=C/c1ccc(F)cc1)N1CCC(Cc2ccccc2)CC1` here?
**A.** 41.8 µM

**Q.** For `COCCn1c(=O)[nH]c2cc(C(=O)NCCNc3ccc([N+](=O)[O-])cc3C#N)ccc2c1=O`, which IC50 is on record?
**A.** 3.57 µM

**Q.** For `O=C(Nc1cccc(-c2noc(C3CCC3)n2)c1)C1CC(=O)N(c2ccccc2)C1` (configuration not stated), which IC50 is on record?
**A.** 14.1 µM

**Q.** Which IC50 does the source give for `Cc1ccccc1NC(=O)c1nc(-c2cn(Cc3ccc(F)cc3)nn2)no1` here?
**A.** 8.42 µM

**Q.** For `Cc1c(C(=O)Nc2cccc(C(F)(F)F)c2)cnn1-c1ccccn1`, which IC50 is on record?
**A.** 34.4 µM

**Q.** `Cn1c(=O)[nH]c2nncnc2c1=O` was tested. Which IC50 did it give?
**A.** 7.23 µM

**Q.** `COc1ccc(CCNC(=O)c2cn(-c3ccc(F)cc3)nn2)cc1OC` was tested. Which IC50 did it give?
**A.** 18.7 µM

**Q.** `CN(C)c1ccc(/C=N/NC(=O)c2ccc(Cl)cc2)cc1` was tested. Which IC50 did it give?
**A.** 6.27 µM

**Q.** How did the IC50 turn out when `CN(C)c1ccc(CCN2CCc3nc4cccnc4cc3C2)cc1` was run?
**A.** > 50 µM (inactive)

**Q.** `O=[N+]([O-])c1ccccc1C(c1c[nH]c2ccccc12)c1c[nH]c2ccccc12` was tested. Which IC50 did it give?
**A.** 24.6 µM

**Q.** Which IC50 does the source give for `Cc1nc(NCc2ccccn2)c2cc(-c3ccccc3)sc2n1` here?
**A.** 24.7 µM

**Q.** Which IC50 does the source give for `Cc1ccccc1-c1nc(CN(C)S(=O)(=O)c2ccccc2)c(C)o1` here?
**A.** > 50 µM (inactive)

**Q.** How did the IC50 turn out when `O=c1ccc(-c2noc(-c3ccc4cc[nH]c4c3)n2)c[nH]1` was run?
**A.** > 50 µM (inactive)

**Q.** Which IC50 does the source give for `Cc1nc(C(=O)N[C@@H](C)C(=O)NCc2ccc3c(c2)OCO3)cc2c1[nH]c1ccccc12` here?
**A.** 27.2 µM

**Q.** How did the IC50 turn out when `COc1ccc(Cl)cc1N1C(=O)[C@H]2[C@@H](C1=O)[C@]1(C(=O)Nc3c(C)cc(C)cc31)N1CCC[C@@H]21` was run?
**A.** > 50 µM (inactive)

**Q.** With `COc1cccc(N2CCN(C(=O)c3cc(NC(C)=O)cc4nc(C)ccc34)CC2)c1` as the compound, how does the IC50 read?
**A.** > 50 µM (inactive)

**Q.** For `NC(=O)c1nnn(-c2ccc(NC(=O)c3ccc(F)c(F)c3)cc2)n1`, which IC50 is on record?
**A.** 10.6 µM

**Q.** With `COc1ccc(CCN2COc3c(cc(Cl)c4cccnc34)C2)cc1OC` as the compound, how does the IC50 read?
**A.** 24.8 µM

**Q.** Which IC50 does the source give for `Fc1ccccc1N1CCN(c2ncc3c(n2)CCN(Cc2ccccn2)C3)CC1` here?
**A.** 43 µM

**Q.** For `Cc1ccc(C(=O)Nc2ccc(S(=O)(=O)N3CCCC3)cc2)cc1Br`, which IC50 is on record?
**A.** > 50 µM (inactive)

**Q.** `CCOc1ccc2nc(NC(=O)C3CCN(S(=O)(=O)c4ccc5c(c4)CC(C)N5C(C)=O)CC3)sc2c1` (configuration not stated) was tested. Which IC50 did it give?
**A.** > 50 µM (inactive)

**Q.** Which IC50 does the source give for `COc1ccccc1S(=O)(=O)N1CC[C@@H]2CN(C)[C@@H]2C1` here?
**A.** 32.2 µM

**Q.** `Cc1cc(O)cc2cc3c(c(O)c12)C(=O)CCC3O` (configuration not stated) was tested. Which IC50 did it give?
**A.** > 50 µM (inactive)

**Q.** `CC1(C)Cc2nc3sc4c(=O)n(CC(=O)NCc5ccccc5)cnc4c3cc2CO1` was tested. Which IC50 did it give?
**A.** 44.9 µM

**Q.** How did the IC50 turn out when `O=C(Cn1c(=O)n(Cc2ccc(F)cc2)c(=O)c2sccc21)Nc1cccc(Cl)c1` was run?
**A.** 7.77 µM

**Q.** Which IC50 does the source give for `C=C(NC(=O)C(=C)NC(=O)c1csc(C2=N[C@@H]3c4csc(n4)[C@H]4NC(=O)c5csc(n5)[C@H]([C@](C)(O)[C@@H](C)O)NC(=O)[C@H]5CSC(=N5)/C(=C/C)NC(=O)C([C@@H](C)O)NC(=O)c5csc(n5)C3(CC2)NC(=O)[C@H](C)NC(=O)C(=C)NC(=O)[C@H](C)NC(=O)C([C@@H](C)CC)N[C@@H]2C=Cc3c(C(C)O)cc(nc3[C@H]2O)C(=O)OC4C)n1)C(N)=O` (some centres not stated) here?
**A.** > 50 µM (inactive)

**Q.** With `COc1cc(NC(=O)Cn2c(=O)n(-c3ccc(CC(=O)NC4CCCC4)cc3)c(=O)c3ccccc32)cc(OC)c1` as the compound, how does the IC50 read?
**A.** > 5 µM (inactive)

**Q.** How did the IC50 turn out when `CCN1C(SCc2ccc(F)cc2)=NS(=O)(=O)c2ccccc21` was run?
**A.** > 50 µM (inactive)

**Q.** With `COc1ccc(-c2nc(C)c(C(=O)NCc3ccc(S(N)(=O)=O)cc3)s2)cc1` as the compound, how does the IC50 read?
**A.** > 50 µM (inactive)

**Q.** Which IC50 does the source give for `COc1ccc(C(C(=O)NC2CCCCC2)N(C(=O)CCCC(=O)Nc2ccccn2)c2ccccc2C)cc1` (configuration not stated) here?
**A.** 22.5 µM

**Q.** With `Cc1ccc2c(c1C)NC(=O)[C@]21[C@@H]2C(=O)N(c3cccc(Cl)c3)C(=O)[C@@H]2[C@@H]2CCCN21` as the compound, how does the IC50 read?
**A.** > 50 µM (inactive)

**Q.** With `O=C(Nc1ccc(N2CCOCC2)cc1)c1ccc(-c2ccc(N3CCCC3)nn2)cc1` as the compound, how does the IC50 read?
**A.** > 50 µM (inactive)
